Legend:
Test in all cases: kinome screen (33PanQinase)
Format in all cases: biochemical
MAPKAPK5 = target: T1, MAPKAPK5 (Homo sapiens, UniProt Q8IW41)
T1 construct: purchased Reaction Biology Europe GmbH (formerly ProQinase)
Protocol: (§1) The Kinome Screening was performed by Reaction Biology Europe GmbH (http://reactionbiology.com; Freiburg i. Br., Germany).

ITK = target: T2, ITK (Homo sapiens, UniProt Q08881)
T2 construct: purchased Reaction Biology Europe GmbH (formerly ProQinase)
T2 sequence (Q08881 1-620): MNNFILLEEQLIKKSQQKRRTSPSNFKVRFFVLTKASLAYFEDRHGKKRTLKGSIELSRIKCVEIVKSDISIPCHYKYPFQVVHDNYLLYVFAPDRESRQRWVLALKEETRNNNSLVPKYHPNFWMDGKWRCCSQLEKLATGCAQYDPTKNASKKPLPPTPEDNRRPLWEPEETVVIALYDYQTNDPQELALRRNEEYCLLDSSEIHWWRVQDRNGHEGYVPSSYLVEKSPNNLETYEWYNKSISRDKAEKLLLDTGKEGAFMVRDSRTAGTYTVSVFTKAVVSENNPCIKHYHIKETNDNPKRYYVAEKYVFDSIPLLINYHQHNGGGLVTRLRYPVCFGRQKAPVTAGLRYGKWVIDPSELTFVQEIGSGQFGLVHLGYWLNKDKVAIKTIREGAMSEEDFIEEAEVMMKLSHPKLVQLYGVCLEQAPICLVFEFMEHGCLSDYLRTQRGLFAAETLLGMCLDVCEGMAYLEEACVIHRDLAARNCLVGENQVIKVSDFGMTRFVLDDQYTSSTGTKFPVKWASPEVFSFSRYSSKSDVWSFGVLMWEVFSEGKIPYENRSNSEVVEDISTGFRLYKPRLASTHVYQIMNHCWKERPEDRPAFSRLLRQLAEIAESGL
Protocol: as §1

PKMzeta = target: T3, PKMzeta (Homo sapiens, UniProt Q05513)
T3 construct: PKMzeta; purchased Reaction Biology Europe GmbH (formerly ProQinase)
T3 sequence (Q05513 184-592 limits assumed): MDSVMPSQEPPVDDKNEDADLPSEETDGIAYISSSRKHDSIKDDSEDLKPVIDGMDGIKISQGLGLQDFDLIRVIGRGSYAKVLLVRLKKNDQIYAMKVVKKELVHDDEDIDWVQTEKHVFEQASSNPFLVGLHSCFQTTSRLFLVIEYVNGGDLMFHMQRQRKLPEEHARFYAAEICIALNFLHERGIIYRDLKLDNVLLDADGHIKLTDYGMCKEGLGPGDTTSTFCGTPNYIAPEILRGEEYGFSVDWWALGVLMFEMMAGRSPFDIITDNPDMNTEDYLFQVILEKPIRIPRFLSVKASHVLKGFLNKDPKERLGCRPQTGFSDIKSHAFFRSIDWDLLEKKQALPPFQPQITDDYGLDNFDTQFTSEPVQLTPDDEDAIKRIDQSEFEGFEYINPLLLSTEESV
Protocol: as §1

CAMK2G = target: T4, CAMK2G (Homo sapiens, UniProt Q13555)
T4 construct: purchased Reaction Biology Europe GmbH (formerly ProQinase)
T4 sequence (Q13555 whole entry): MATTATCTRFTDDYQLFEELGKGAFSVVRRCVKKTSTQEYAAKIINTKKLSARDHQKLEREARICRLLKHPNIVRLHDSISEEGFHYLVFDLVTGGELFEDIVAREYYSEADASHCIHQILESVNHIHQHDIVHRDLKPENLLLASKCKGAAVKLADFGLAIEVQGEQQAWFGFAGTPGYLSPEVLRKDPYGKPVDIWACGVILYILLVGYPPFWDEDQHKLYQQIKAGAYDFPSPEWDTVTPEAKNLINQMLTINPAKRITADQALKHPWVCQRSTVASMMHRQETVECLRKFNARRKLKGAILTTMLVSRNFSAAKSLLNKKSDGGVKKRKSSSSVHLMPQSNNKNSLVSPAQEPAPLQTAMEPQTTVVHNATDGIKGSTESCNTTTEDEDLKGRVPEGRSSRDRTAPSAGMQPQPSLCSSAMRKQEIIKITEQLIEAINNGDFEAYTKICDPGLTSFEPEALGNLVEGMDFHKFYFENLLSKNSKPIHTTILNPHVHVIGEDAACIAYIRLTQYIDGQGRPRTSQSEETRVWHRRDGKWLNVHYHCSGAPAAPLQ
Protocol: as §1

MARK1 = target: T5, MARK1 (Homo sapiens, UniProt Q9P0L2)
T5 construct: purchased Reaction Biology Europe GmbH (formerly ProQinase)
T5 sequence (Q9P0L2 whole entry): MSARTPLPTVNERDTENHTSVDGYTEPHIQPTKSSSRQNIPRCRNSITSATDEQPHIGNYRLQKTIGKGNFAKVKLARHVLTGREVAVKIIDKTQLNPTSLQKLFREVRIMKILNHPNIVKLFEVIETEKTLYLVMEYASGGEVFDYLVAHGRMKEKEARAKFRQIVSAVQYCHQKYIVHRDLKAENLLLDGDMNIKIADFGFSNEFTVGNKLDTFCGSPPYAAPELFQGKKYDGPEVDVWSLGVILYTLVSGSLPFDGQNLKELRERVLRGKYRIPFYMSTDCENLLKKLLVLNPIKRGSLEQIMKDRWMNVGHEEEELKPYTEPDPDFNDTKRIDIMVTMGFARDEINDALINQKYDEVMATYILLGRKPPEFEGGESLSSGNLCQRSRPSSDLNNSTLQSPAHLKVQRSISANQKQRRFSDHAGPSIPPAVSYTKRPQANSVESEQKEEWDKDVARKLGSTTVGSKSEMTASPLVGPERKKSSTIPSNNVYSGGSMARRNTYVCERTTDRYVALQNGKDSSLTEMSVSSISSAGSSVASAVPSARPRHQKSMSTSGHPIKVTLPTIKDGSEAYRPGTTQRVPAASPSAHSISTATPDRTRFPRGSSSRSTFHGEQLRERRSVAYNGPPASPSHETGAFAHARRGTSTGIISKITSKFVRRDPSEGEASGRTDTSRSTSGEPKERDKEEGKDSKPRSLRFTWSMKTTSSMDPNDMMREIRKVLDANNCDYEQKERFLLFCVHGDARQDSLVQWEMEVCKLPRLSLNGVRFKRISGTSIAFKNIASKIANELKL
Protocol: as §1

ACVR2A = target: T6, ACVR2A (Homo sapiens, UniProt P27037)
T6 construct: purchased Reaction Biology Europe GmbH (formerly ProQinase)
T6 sequence (P27037 20-513): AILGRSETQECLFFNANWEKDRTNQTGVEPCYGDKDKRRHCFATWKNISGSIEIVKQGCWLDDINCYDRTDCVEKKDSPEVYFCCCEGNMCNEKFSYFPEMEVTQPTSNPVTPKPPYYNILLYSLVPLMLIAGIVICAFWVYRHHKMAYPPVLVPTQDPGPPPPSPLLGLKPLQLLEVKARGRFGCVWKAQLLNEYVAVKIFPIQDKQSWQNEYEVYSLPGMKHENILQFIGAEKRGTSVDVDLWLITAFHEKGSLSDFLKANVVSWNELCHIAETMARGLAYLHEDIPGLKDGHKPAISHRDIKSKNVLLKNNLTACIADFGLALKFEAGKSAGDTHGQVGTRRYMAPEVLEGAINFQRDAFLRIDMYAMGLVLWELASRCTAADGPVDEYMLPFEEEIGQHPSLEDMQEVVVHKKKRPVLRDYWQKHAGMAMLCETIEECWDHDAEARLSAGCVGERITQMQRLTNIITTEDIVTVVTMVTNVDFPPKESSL
Protocol: as §1

ERBB4 = target: T7, ERBB4 (Homo sapiens, UniProt Q15303)
T7 construct: purchased Reaction Biology Europe GmbH (formerly ProQinase)
T7 sequence (Q15303 26-1308): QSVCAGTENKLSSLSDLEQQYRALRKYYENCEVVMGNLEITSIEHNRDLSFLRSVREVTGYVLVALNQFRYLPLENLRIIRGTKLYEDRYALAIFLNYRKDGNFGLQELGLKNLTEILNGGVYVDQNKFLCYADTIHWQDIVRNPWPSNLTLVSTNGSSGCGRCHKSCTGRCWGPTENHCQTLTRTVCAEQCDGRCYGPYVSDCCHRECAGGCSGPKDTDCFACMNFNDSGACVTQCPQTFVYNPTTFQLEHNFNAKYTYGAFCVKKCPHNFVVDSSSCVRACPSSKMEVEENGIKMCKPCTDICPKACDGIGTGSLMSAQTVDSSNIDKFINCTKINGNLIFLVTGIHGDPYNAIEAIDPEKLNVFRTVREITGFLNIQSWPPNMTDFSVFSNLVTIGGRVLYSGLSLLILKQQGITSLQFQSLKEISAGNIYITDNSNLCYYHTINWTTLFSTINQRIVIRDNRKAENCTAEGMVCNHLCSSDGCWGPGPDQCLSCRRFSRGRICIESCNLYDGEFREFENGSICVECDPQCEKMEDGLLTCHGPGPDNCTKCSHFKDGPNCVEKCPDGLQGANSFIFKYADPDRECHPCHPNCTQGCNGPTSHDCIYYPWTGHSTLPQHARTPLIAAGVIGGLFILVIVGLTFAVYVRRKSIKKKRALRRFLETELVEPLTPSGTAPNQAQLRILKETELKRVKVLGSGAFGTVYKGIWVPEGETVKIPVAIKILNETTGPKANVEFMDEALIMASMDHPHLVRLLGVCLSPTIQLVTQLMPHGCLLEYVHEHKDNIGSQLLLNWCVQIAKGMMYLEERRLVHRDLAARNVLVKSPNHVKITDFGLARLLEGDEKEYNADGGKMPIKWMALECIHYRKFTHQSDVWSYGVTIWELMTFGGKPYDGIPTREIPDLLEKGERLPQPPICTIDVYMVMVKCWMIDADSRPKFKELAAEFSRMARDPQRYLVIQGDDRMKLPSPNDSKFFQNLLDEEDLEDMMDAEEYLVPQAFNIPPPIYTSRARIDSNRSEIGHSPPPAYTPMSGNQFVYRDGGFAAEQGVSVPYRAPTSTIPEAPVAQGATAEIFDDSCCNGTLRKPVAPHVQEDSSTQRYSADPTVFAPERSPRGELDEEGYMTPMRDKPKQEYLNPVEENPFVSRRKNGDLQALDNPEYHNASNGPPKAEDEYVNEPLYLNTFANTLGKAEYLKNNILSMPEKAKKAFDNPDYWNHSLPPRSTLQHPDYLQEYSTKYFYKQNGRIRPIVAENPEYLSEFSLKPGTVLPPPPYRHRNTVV
Protocol: as §1

DNAPK = target: T8, DNAPK (Homo sapiens, UniProt P78527)
T8 construct: purchased Reaction Biology Europe GmbH (formerly ProQinase)
Protocol: as §1

DAPK2 = target: T9, DAPK2 (Homo sapiens, UniProt Q9UIK4)
T9 construct: purchased Reaction Biology Europe GmbH (formerly ProQinase)
Protocol: as §1

JNK1 = target: T10, JNK1 (Homo sapiens, UniProt P45983)
T10 construct: purchased Reaction Biology Europe GmbH (formerly ProQinase)
T10 sequence (P45983 whole entry): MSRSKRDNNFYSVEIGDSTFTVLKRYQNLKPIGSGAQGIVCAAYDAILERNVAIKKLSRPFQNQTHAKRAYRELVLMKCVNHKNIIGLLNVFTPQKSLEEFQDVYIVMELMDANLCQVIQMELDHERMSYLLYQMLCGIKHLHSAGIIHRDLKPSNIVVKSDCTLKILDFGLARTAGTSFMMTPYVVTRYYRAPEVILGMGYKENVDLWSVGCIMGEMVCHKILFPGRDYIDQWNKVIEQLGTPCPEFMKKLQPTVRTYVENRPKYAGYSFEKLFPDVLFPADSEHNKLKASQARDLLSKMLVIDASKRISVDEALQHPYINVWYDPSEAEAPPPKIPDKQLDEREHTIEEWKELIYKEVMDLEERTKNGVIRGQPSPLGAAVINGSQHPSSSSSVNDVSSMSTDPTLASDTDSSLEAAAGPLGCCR
Protocol: as §1

TLK1 = target: T11, TLK1 (Homo sapiens, UniProt Q9UKI8)
T11 construct: purchased Reaction Biology Europe GmbH (formerly ProQinase)
T11 sequence (Q9UKI8 1-766): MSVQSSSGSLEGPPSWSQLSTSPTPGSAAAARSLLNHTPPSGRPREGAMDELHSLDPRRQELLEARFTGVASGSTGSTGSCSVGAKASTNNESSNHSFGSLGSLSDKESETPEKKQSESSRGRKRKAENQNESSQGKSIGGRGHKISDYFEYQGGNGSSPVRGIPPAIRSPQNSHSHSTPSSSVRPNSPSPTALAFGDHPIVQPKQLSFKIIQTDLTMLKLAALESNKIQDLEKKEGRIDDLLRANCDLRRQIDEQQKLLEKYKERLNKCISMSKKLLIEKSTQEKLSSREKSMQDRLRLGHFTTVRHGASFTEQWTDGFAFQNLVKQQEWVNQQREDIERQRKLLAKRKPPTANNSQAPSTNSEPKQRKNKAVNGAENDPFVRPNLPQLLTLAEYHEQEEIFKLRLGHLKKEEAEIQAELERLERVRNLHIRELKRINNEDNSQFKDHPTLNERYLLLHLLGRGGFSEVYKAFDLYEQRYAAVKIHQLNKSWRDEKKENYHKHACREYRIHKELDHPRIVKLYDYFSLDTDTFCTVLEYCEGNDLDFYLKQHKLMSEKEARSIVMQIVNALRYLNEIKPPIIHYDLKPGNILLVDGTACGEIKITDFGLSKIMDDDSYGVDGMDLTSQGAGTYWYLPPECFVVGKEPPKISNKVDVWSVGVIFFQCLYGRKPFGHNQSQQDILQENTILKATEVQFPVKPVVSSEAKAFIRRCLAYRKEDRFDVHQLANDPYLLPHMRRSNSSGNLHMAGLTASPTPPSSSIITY
Protocol: as §1

BLK = target: T12, BLK (Homo sapiens, UniProt P51451)
T12 construct: purchased Reaction Biology Europe GmbH (formerly ProQinase)
T12 sequence (P51451 whole entry): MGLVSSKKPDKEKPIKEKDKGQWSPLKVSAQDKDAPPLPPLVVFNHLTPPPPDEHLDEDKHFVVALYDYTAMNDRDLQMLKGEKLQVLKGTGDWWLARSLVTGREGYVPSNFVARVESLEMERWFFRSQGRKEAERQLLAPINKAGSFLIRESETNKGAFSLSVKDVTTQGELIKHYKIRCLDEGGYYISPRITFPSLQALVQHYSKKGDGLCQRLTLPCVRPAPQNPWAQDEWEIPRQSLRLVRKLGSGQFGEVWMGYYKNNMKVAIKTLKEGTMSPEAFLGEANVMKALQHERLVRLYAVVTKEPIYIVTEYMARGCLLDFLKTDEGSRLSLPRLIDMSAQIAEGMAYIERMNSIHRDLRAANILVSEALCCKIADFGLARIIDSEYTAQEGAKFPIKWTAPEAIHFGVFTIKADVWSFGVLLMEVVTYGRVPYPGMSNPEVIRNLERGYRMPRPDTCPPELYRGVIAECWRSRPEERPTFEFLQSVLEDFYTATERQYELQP
Protocol: as §1

CLK1 = target: T13, CLK1 (Homo sapiens, UniProt P49759)
T13 construct: purchased Reaction Biology Europe GmbH (formerly ProQinase)
T13 sequence (P49759 whole entry): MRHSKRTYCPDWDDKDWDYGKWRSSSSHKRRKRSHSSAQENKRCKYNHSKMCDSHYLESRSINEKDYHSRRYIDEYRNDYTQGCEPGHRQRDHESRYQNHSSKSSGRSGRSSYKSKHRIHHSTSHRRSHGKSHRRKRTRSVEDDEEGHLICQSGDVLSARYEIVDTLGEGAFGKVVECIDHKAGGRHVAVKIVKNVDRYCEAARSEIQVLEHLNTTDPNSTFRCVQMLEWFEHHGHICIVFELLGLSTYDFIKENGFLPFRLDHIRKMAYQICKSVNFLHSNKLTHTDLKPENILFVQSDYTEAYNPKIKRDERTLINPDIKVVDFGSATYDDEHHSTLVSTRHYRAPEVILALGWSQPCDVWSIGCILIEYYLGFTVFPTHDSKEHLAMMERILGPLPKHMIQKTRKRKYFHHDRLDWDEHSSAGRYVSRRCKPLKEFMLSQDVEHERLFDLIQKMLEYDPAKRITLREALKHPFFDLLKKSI
Protocol: as §1

TSF1 = target: T14, TSF1 (Homo sapiens, UniProt O75716)
T14 construct: purchased Reaction Biology Europe GmbH (formerly ProQinase)
T14 sequence (O75716 whole entry): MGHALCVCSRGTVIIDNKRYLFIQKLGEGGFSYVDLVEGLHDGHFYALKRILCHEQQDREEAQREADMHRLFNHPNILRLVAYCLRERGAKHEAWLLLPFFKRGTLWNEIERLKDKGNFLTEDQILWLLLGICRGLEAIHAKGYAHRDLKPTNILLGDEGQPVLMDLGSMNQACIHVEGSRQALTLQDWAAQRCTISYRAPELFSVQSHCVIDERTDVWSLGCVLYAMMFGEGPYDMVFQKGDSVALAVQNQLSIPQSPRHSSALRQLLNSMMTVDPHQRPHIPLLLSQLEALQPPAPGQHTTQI
Protocol: as §1

## c1ccc(CNc2cc(-c3c[nH]c4ncccc34)ccn2)cc1 [meriolin 36]
MAPKAPK5; 3 µM
  residual kinase activity: 69 % of control
ITK; 0.3 µM
  residual kinase activity: 77 % of control
ITK; 3 µM
  residual kinase activity: 16 % of control
PKMzeta; 0.3 µM
  residual kinase activity: 89 % of control
PKMzeta; 3 µM
  residual kinase activity: 68 % of control
CAMK2G; 0.3 µM
  residual kinase activity: 34 % of control
CAMK2G; 3 µM
  residual kinase activity: 6 % of control
MARK1; 0.3 µM
  residual kinase activity: 90 % of control
MARK1; 3 µM
  residual kinase activity: 43 % of control
ACVR2A; 0.3 µM
  residual kinase activity: 94 % of control
ACVR2A; 3 µM
  residual kinase activity: 47 % of control
ERBB4; 0.3 µM
  residual kinase activity: 101 % of control
ERBB4; 3 µM
  residual kinase activity: 56 % of control
DNAPK; 0.3 µM
  residual kinase activity: 71 % of control
DNAPK; 3 µM
  residual kinase activity: 25 % of control
DAPK2; 0.3 µM
  residual kinase activity: 118 % of control
DAPK2; 3 µM
  residual kinase activity: 67 % of control
JNK1; 0.3 µM
  residual kinase activity: 74 % of control
JNK1; 3 µM
  residual kinase activity: 23 % of control
TLK1; 0.3 µM
  residual kinase activity: 119 % of control
TLK1; 3 µM
  residual kinase activity: 106 % of control
BLK; 0.3 µM
  residual kinase activity: 88 % of control
BLK; 3 µM
  residual kinase activity: 13 % of control
CLK1; 0.3 µM
  residual kinase activity: 4 % of control
CLK1; 3 µM
  residual kinase activity: 2 % of control
TSF1; 0.3 µM
  residual kinase activity: 57 % of control
TSF1; 3 µM
  residual kinase activity: 8 % of control

## COc1ccnc2[nH]cc(-c3cc(N)nc(N)c3)c12 [meriolin 16]
MAPKAPK5; 0.3 µM
  residual kinase activity: 85 % of control
ITK; 0.03 µM
  residual kinase activity: 105 % of control
ITK; 0.3 µM
  residual kinase activity: 88 % of control
PKMzeta; 0.03 µM
  residual kinase activity: 97 % of control
PKMzeta; 0.3 µM
  residual kinase activity: 90 % of control
CAMK2G; 0.03 µM
  residual kinase activity: 94 % of control
CAMK2G; 0.3 µM
  residual kinase activity: 82 % of control
MARK1; 0.03 µM
  residual kinase activity: 121 % of control
MARK1; 0.3 µM
  residual kinase activity: 101 % of control
ACVR2A; 0.03 µM
  residual kinase activity: 103 % of control
ACVR2A; 0.3 µM
  residual kinase activity: 103 % of control
ERBB4; 0.03 µM
  residual kinase activity: 108 % of control
ERBB4; 0.3 µM
  residual kinase activity: 90 % of control
DNAPK; 0.03 µM
  residual kinase activity: 100 % of control
DNAPK; 0.3 µM
  residual kinase activity: 97 % of control
DAPK2; 0.03 µM
  residual kinase activity: 106 % of control
DAPK2; 0.3 µM
  residual kinase activity: 78 % of control
JNK1; 0.03 µM
  residual kinase activity: 102 % of control
JNK1; 0.3 µM
  residual kinase activity: 95 % of control
TLK1; 0.03 µM
  residual kinase activity: 98 % of control
TLK1; 0.3 µM
  residual kinase activity: 89 % of control
BLK; 0.03 µM
  residual kinase activity: 126 % of control
BLK; 0.3 µM
  residual kinase activity: 95 % of control
CLK1; 0.03 µM
  residual kinase activity: 11 % of control
CLK1; 0.3 µM
  residual kinase activity: 3 % of control
TSF1; 0.03 µM
  residual kinase activity: 109 % of control
TSF1; 0.3 µM
  residual kinase activity: 104 % of control

Reference: PMC11167047 (Cell Death Discovery, 2024)
